Experimental findings from ChEMBL document CHEMBL3421538, “Structure-activity relationships and molecular studies of novel arylpiperazinylalkyl purine-2,4-diones and purine-2,4,8-triones with antidepressant and anxiolytic-like activity” (Eur J Med Chem, 2015) are described below.

For assay [1], the target named is T1, 5-hydroxytryptamine receptor 6 (Homo sapiens, UniProt P50406). The experiment in a line: Displacement of [3H]LSD from human recombinant 5-HT6 receptor expressed in HEK293 cells assessed as total radioligand binding at 1.66 x 10^-7 M incubated for 60 mins by microbeta plate reader based method. The assay is classed as cell-based.
Assay [2] concerns the target D(3) dopamine receptor (Homo sapiens) (UniProt P35462). The assay is described as follows: Displacement of [3H]N-methylspiperone from dopamine D3 receptor (unknown origin) assessed as total radioligand binding at 1.66 x 10^-7 M incubated for 60 mins by microbeta plate reader based method. On the technique in general: In a radioligand displacement assay an active substance lowers the binding of a labelled ligand.

The target of assay [3] is T1, 5-hydroxytryptamine receptor 6. The assay is described as follows: Displacement of [3H]LSD from human recombinant 5-HT6 receptor expressed in HEK293 cells assessed as total radioligand binding at 1 uM incubated for 60 mins by microbeta plate reader based method. The class given is cell-based.
The target in assay [4] is T2, 5-hydroxytryptamine receptor 1A (Rattus norvegicus) (UniProt P19327).
T2 sequence (whole entry): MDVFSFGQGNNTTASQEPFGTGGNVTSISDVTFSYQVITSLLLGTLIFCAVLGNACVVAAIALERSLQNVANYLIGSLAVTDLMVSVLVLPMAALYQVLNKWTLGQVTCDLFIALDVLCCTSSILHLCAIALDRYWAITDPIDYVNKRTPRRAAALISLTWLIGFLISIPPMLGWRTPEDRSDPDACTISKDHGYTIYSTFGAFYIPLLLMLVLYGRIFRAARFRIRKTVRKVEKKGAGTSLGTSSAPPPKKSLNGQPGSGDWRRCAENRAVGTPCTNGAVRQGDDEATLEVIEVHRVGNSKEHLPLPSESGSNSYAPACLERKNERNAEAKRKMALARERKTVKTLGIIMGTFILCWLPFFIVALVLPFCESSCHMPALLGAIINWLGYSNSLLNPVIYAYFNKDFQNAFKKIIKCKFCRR
The assay is described as follows: Displacement of [3H]8-OH-DPAT from rat hippocampus 5-HT1A receptor assessed as total radioligand binding at 1.66 x 10^-7 M incubated for 20 mins by microbeta plate reader based method.

The target in assay [5] is D(3) dopamine receptor (Homo sapiens) (UniProt P35462). The assay is described as follows: Displacement of [3H]N-methylspiperone from dopamine D3 receptor (unknown origin) assessed as total radioligand binding at 1 uM incubated for 60 mins by microbeta plate reader based method.
In assay [6] the target is T2, 5-hydroxytryptamine receptor 1A (Rattus norvegicus). The experiment in a line: Displacement of [3H]8-OH-DPAT from rat hippocampus 5-HT1A receptor assessed as total radioligand binding at 1 uM incubated for 20 mins by microbeta plate reader based method.
The target of assay [7] is T1, 5-hydroxytryptamine receptor 6. The experiment in a line: Displacement of [3H]LSD from human recombinant 5-HT6 receptor expressed in HEK293 cells incubated for 60 mins by microbeta plate reader based method. The class given is cell-based.
Assay [8] addresses 5-hydroxytryptamine receptor 7 (Homo sapiens, UniProt P34969). The experiment in a line: Displacement of [3H]LSD from human recombinant 5-HT7 receptor expressed in CHOK1 cells incubated for 60 mins by microbeta plate reader based method. The class given is cell-based, CHO-K1.
For assay [9], the target named is T3, 5-hydroxytryptamine receptor 1A (Rattus norvegicus, UniProt P19327).
T3 sequence (P19327 whole entry): T2 sequence (whole entry)
The experiment in a line: Displacement of [3H]8-OH-DPAT from rat hippocampus 5-HT1A receptor incubated for 20 mins by microbeta plate reader based method.

For the next assay, the target named is D(2) dopamine receptor (Homo sapiens, UniProt P14416). The assay is described as follows: Displacement of [3H]N-methylspiperone from human recombinant dopamine D2 receptor expressed in CHOK1 cells incubated for 60 mins by microbeta plate reader based method. The class given is cell-based, CHO-K1.
A short description of assay [10]: Selectivity index, ratio of Ki for rat hippocampus 5-HT1A receptor to Ki for human recombinant 5-HT7 receptor.
Assay [11] relates to Mus musculus. The experiment in a line: Anxiolytic-like activity in Swiss mouse assessed as increase in number of punished crossings measured during 60 seconds period at 5 mg/kg, ip by four-plate test. The class given is functional. Conditions: route intraperitoneal.
For assay [12], the system named is Mus musculus. The experiment in a line: Anxiolytic-like activity in Swiss mouse assessed as increase in number of punished crossings measured during 60 seconds period at 2.5 mg/kg, ip by four-plate test. The assay is classed as functional. Conditions: route intraperitoneal.

The structures appear in SMILES notation.

T1 sequence (P50406 whole entry): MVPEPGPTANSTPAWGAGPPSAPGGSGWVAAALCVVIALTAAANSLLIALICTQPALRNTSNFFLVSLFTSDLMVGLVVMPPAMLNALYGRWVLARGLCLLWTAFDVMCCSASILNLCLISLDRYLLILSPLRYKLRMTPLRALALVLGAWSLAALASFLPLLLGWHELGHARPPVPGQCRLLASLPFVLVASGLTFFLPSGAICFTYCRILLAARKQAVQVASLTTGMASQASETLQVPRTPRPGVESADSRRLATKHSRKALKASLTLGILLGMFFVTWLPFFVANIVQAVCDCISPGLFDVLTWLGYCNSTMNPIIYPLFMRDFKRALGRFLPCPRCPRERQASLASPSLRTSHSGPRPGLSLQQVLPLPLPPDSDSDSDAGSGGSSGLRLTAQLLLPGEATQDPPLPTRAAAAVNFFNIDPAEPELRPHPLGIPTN
5-hydroxytryptamine receptor 7, sequence (P34969 whole entry): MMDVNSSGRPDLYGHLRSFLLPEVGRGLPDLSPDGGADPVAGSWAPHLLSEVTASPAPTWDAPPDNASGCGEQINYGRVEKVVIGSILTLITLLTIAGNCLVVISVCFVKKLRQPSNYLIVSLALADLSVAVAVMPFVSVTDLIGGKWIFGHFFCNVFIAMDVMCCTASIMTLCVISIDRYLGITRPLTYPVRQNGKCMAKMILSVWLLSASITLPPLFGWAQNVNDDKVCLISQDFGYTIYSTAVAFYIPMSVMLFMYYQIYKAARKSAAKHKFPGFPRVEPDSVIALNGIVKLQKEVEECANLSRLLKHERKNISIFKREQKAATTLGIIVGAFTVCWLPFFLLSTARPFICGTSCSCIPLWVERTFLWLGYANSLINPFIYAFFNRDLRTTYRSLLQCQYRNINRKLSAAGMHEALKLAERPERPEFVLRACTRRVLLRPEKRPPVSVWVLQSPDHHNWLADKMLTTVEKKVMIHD
D(3) dopamine receptor (Homo sapiens), sequence (P35462 whole entry): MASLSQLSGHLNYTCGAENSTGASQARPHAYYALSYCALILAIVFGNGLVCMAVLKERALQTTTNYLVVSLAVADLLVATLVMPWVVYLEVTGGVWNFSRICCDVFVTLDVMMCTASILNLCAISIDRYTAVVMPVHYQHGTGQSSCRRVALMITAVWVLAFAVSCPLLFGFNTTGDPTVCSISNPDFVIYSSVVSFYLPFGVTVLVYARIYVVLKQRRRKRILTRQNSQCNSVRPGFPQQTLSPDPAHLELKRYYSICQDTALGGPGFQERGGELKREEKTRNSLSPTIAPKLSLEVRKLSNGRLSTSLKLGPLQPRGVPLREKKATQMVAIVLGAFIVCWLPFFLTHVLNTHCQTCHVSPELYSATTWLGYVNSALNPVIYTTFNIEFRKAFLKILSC
D(2) dopamine receptor, sequence (P14416 whole entry): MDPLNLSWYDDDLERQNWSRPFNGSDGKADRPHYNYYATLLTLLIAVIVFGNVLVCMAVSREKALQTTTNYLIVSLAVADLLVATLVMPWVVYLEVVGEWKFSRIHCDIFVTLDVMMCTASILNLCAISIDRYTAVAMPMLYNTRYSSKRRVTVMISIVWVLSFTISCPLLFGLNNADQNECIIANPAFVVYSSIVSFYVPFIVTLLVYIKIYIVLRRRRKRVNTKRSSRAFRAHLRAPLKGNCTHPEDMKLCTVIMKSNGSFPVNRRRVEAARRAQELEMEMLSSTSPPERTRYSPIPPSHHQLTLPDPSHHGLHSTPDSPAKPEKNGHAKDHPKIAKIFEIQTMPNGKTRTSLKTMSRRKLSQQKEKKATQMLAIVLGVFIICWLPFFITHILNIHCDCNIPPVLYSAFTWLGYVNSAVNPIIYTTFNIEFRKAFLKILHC

Regarding `Cc1cccc(N2CCN(CCCCn3c(=O)ccn4c5c(=O)n(C)c(=O)n(C)c5nc34)CC2)c1C`, the Activity in assay [1] was 100%; in assay [2], 100%; in assay [3], 94%; in [4], 85%; in [5] it was 73%; in assay [6], 42%.
The Ki is a measure of affinity in units of concentration, obtained from inhibition or displacement. Turning to `Cc1cn2c3c(=O)n(C)c(=O)n(C)c3nc2n1CCCCN1CCN(c2ccc(Cl)cc2)CC1`, the Ki is 1.46 µM in assay [7], 0.361 µM in assay [8], 0.038 µM in assay [9] and 0.123 µM at D(2) dopamine receptor. Besides, the Ratio Ki in [10] was 0.1.
Regarding `Cc1cccc(N2CCN(CCCCCn3c(=O)ccn4c5c(=O)n(C)c(=O)n(C)c5nc34)CC2)c1C`, the Activity in [1] came out at 85%; in assay [2], 83%; in assay [3] it was 59%; in [4], 88%; in [5], 67%; in assay [6], 50%.
In the case of `Cn1c(=O)c2c(nc3n(CCCCCN4CCN(c5ccc(Cl)c(Cl)c5)CC4)ccn23)n(C)c1=O`, the Activity in assay [1] amounted to 90%; in assay [2], 67%; in assay [3] it was 62%; in assay [4], 78%; in assay [5], 16%; in assay [6] it was 3%.
In the case of `Cn1c(=O)c2c(nc3n(CCCCCN4CCN(c5ccc(Cl)cc5)CC4)c(=O)ccn23)n(C)c1=O`, the values for the Activity in [2] and in [5] were 99% and 92%, respectively. Besides, the Ki in assay [7] was 0.839 µM; in assay [8], above 1 µM; in assay [9] it was 0.08 µM; on D(2) dopamine receptor, 0.215 µM.
In the case of `CSc1ccc2c(c1)C(N1CCN(C)CC1)Cc1ccccc1S2` (stereo not given), the Activity in assay [1] is 3%; in assay [3] it was 1%.
Consider `Cn1c(=O)c2c(nc3n(CCCCN4CCN(c5ccc(Cl)c(Cl)c5)CC4)c(=O)ccn23)n(C)c1=O`, for which the Activity in assay [1] was 100%; in assay [2], 99%; in [3], 67%; in [4], 97%; in assay [5], 98%; in assay [6] it was 84%.
On to `Cn1c(=O)c2c(nc3n(CCCCN4CCN(c5ccccc5O)CC4)ccn23)n(C)c1=O`, for which the Activity in [1] worked out at 99%; in [2] it was 67%; in [3], 90%; in assay [4], 40%; in assay [5] it was 69%; in assay [6], 7%. For the same compound, the Ki in assay [8] was 1.36 µM; in [9] it was 0.002 µM; at D(2) dopamine receptor, 0.7 µM. In addition, in [10], the Ratio Ki worked out at 0.002.
Regarding `Cn1c(=O)c2c(nc3n(CCCCCN4CCN(c5ccccc5O)CC4)c(=O)ccn23)n(C)c1=O`, the Activity in assay [2] came out at 67%; in [5], 46%. Moreover, the Ki is above 1 µM in assay [7], 0.473 µM in assay [8], 0.002 µM in assay [9] and 0.34 µM at D(2) dopamine receptor.
Take `Cn1c(=O)c2c(nc3n(CCCCCN4CCN(c5ccc(Cl)c(Cl)c5)CC4)c(=O)ccn23)n(C)c1=O`: the Activity in [1] stood at 100%; in assay [2], 96%; in assay [3], 79%; in assay [4], 86%; in assay [5] it was 61%; in [6], 52%.
As to `Cn1c(=O)c2c(nc3n(CCCCN4CCN(c5ccc(Cl)cc5)CC4)c(=O)ccn23)n(C)c1=O`, the Activity in assay [2] turned out to be 96%; in assay [5], 52%. Besides, the Ki in assay [7] was determined as 0.086 µM; in assay [8], 0.061 µM; in assay [9] it was 0.058 µM; at D(2) dopamine receptor, 0.068 µM.
For `Cc1cn2c3c(=O)n(C)c(=O)n(C)c3nc2n1CCCCCN1CCN(c2ccccc2O)CC1`, the Activity was determined as 84% in [1]; 85% in [2]; 77% in [3]; 52% in assay [4]; 71% in [5]; 0% in assay [6]. Further, the figures for the Ki (in [8]; in [9]; on D(2) dopamine receptor) were 0.124 µM, 0.012 µM and 0.468 µM, respectively. The Ratio Ki in assay [10] amounted to 0.1.
As to `CN1C(=O)CN=C(c2ccccc2)c2cc(Cl)ccc21` [DIAZEPAM], the figures for the Activity in the assay on Mus musculus [11] and in the assay with Mus musculus [12] were 57% and 52%, respectively.
For `Cn1c(=O)c2c(nc3n(CCCCCN4CCN(c5ccc(Cl)cc5)CC4)ccn23)n(C)c1=O`, the Ki in assay [7] was found to be 1.59 µM; in [8], 3.64 µM; in assay [9] it was 0.073 µM; at D(2) dopamine receptor it was 0.259 µM. The Ratio Ki in assay [10] amounted to 0.02.
Turning to `Cc1cn2c3c(=O)n(C)c(=O)n(C)c3nc2n1CCCCCN1CCN(c2ccc(Cl)cc2)CC1`, the Ki came to 0.837 µM in [7], 0.691 µM in assay [8], 0.062 µM in [9] and 0.106 µM at D(2) dopamine receptor. Also, the Ratio Ki in assay [10] came out at 0.09.
Take `Cc1cn2c3c(=O)n(C)c(=O)n(C)c3nc2n1CCCCN1CCN(c2ccc(Cl)c(Cl)c2)CC1`: the Activity turned out to be 110% in assay [1]; 90% in assay [2]; 46% in [3]; 74% in [4]; 64% in assay [5]; 13% in [6].
Consider `Cc1cccc(N2CCN(CCCCn3ccn4c5c(=O)n(C)c(=O)n(C)c5nc34)CC2)c1C`, for which the Activity in [1] amounted to 91%; in [2], 47%; in assay [3], 62%; in [4] it was 48%; in assay [5] it was 13%; in assay [6], 9%.
For `CC[C@@H](CO)NC(=O)[C@@H]1C=C2c3cccc4c3c(cn4C)C[C@H]2N(C)C1`, the Activity in assay [4] was 18%; in [6], 11%.
Turning to `Cc1cn2c3c(=O)n(C)c(=O)n(C)c3nc2n1CCCCN1CCN(c2ccccc2O)CC1`, the Activity came out at 90% in [1]; 86% in [2]; 90% in [3]; 44% in assay [4]; 67% in assay [5]; 8% in assay [6]. The figures for the Ki (in assay [8]; in assay [9]; at D(2) dopamine receptor) were 0.51 µM, 0.002 µM and 0.43 µM, respectively. Besides, the Ratio Ki in assay [10] amounted to 0.003.
Consider `Cn1c(=O)c2c(nc3n(CCCCN4CCN(c5ccccc5O)CC4)c(=O)ccn23)n(C)c1=O`, for which the Activity turned out to be 100% in [1]; 84% in assay [2]; 100% in [3]; 97% in [4]; 26% in assay [5]; 79% in assay [6].
As to `Cn1c(=O)c2c(nc3n(CCCCN4CCN(c5ccc(Cl)c(Cl)c5)CC4)ccn23)n(C)c1=O`, the Activity in assay [1] was determined as 91%; in assay [2] it was 31%; in assay [3] it was 67%; in assay [4], 51%; in [5] it was 0%; in assay [6] it was 9%.
Take `Cn1c(=O)c2c(nc3n(CCCCCN4CCN(c5ccccc5O)CC4)ccn23)n(C)c1=O`: the Activity in assay [1] came out at 76%; in assay [2] it was 69%; in assay [3], 67%; in [4], 57%; in [5], 3%; in [6], 0%. The Ki in assay [8] amounted to 0.23 µM; in [9], 0.007 µM; at D(2) dopamine receptor, 0.265 µM. Further, the Ratio Ki in assay [10] turned out to be 0.03.
In the case of `Cc1cc2c(s1)Nc1ccccc1N=C2N1CCN(C)CC1`, the figures for the Activity in assay [2] and in assay [5] were 24% and 10%, respectively.
Take `Cn1c(=O)c2c(nc3n(CCCCN4CCN(c5ccc(Cl)cc5)CC4)c(-c4ccccc4)cn23)n(C)c1=O`: the Ki came out at 0.447 µM in assay [7], 0.037 µM in assay [8], 0.046 µM in [9] and 0.023 µM on D(2) dopamine receptor. In [10], the Ratio Ki is 1.2.
